Results published in the NIST ThermoML archive (doi:10.1016/j.jct.2008.02.001).
Numbers after ± are expanded uncertainties.

Experiment: molar heat capacity at constant pressure
Conditions: 101.33 kPa, Crystal, PPMS-Quantum Design

[O-][Si]([O-])([O-])[O-].[Th+4] [thorium silicate]
Conditions	molar heat capacity at constant pressure [J/K/mol]
1.885 K	0.001439 ± 0.00011
1.946 K	0.001553 ± 0.00012
2.013 K	0.001656 ± 0.00012
2.084 K	0.0018 ± 0.00014
2.158 K	0.001932 ± 0.00015
2.234 K	0.002074 ± 0.00015
2.319 K	0.002253 ± 0.00016
2.399 K	0.002416 ± 0.00018
2.484 K	0.002584 ± 0.00019
2.572 K	0.002792 ± 0.0002
2.66 K	0.003006 ± 0.00022
2.749 K	0.003244 ± 0.00023
2.842 K	0.0035 ± 0.00025
2.936 K	0.003794 ± 0.00027
3.038 K	0.004121 ± 0.00029
3.136 K	0.004482 ± 0.00032
3.243 K	0.004896 ± 0.00035
3.353 K	0.005336 ± 0.00038
3.463 K	0.005793 ± 0.00041
3.573 K	0.006259 ± 0.00045
3.69 K	0.00688 ± 0.00049
3.812 K	0.00739 ± 0.00052
3.935 K	0.007954 ± 0.00056
4.063 K	0.008647 ± 0.00061
4.198 K	0.009528 ± 0.00067
4.338 K	0.01046 ± 0.00074
4.483 K	0.01148 ± 0.00081
4.637 K	0.0127 ± 0.0009
4.798 K	0.01391 ± 0.00098
4.968 K	0.01533 ± 0.0011
5 K	0.01646 ± 0.0013
5.151 K	0.01714 ± 0.0012
5.343 K	0.01921 ± 0.0014
5.54 K	0.02152 ± 0.0015
5.744 K	0.02438 ± 0.0017
5.956 K	0.02725 ± 0.0019
6.175 K	0.03065 ± 0.0022
6.401 K	0.03406 ± 0.0024
6.631 K	0.03824 ± 0.0027
6.869 K	0.04281 ± 0.003
7.113 K	0.04768 ± 0.0034
7.362 K	0.05303 ± 0.0037
7.62 K	0.05923 ± 0.0042
7.885 K	0.06632 ± 0.0046
8.158 K	0.07389 ± 0.0052
8.441 K	0.08256 ± 0.0058
8.734 K	0.09321 ± 0.0066
9.036 K	0.1048 ± 0.0073
9.352 K	0.1182 ± 0.0083
9.685 K	0.1338 ± 0.0094
10 K	0.1498 ± 0.011
10.02 K	0.1509 ± 0.011
10.37 K	0.1707 ± 0.012
10.73 K	0.1934 ± 0.014
11.1 K	0.2188 ± 0.015
11.48 K	0.2483 ± 0.017
11.88 K	0.2819 ± 0.02
12.29 K	0.32 ± 0.022
12.72 K	0.3633 ± 0.025
13.16 K	0.4129 ± 0.029
13.61 K	0.4682 ± 0.033
14.09 K	0.5314 ± 0.037
14.58 K	0.603 ± 0.042
15.08 K	0.6838 ± 0.048
15.61 K	0.7739 ± 0.054
16.14 K	0.8747 ± 0.061
16.71 K	0.9903 ± 0.069
17.29 K	1.117 ± 0.078
17.89 K	1.255 ± 0.087
18.52 K	1.411 ± 0.098
19.15 K	1.576 ± 0.11
19.81 K	1.761 ± 0.12
20 K	1.81 ± 0.12
20.51 K	1.965 ± 0.14
21.22 K	2.185 ± 0.15
21.97 K	2.428 ± 0.17
22.7 K	2.683 ± 0.19
23.5 K	2.973 ± 0.21
24.27 K	3.257 ± 0.23
25.16 K	3.599 ± 0.25
25.98 K	3.941 ± 0.27
26.91 K	4.308 ± 0.3
27.88 K	4.727 ± 0.33
28.82 K	5.152 ± 0.36
29.81 K	5.6 ± 0.39
30 K	5.69 ± 0.4
30.85 K	6.085 ± 0.42
31.93 K	6.6 ± 0.46
33.08 K	7.146 ± 0.5
34.36 K	7.779 ± 0.54
35.54 K	8.309 ± 0.58
36.76 K	8.996 ± 0.62
38.05 K	9.736 ± 0.68
39.38 K	10.24 ± 0.72
40 K	10.68 ± 0.75
40.71 K	10.97 ± 0.76
42.03 K	11.71 ± 0.81
43.53 K	12.5 ± 0.87
45.03 K	13.28 ± 0.92
46.58 K	14.12 ± 0.98
48.19 K	15 ± 1.1
49.84 K	15.88 ± 1.1
50 K	16.04 ± 1.1
51.54 K	16.84 ± 1.2
53.32 K	17.83 ± 1.2
55.17 K	18.86 ± 1.3
57.08 K	19.9 ± 1.4
59.06 K	20.99 ± 1.5
61.1 K	22.12 ± 1.5
63.21 K	23.21 ± 1.6
65.39 K	24.39 ± 1.7
67.65 K	25.63 ± 1.8
69.99 K	26.91 ± 1.9
72.42 K	28.19 ± 2
74.93 K	29.51 ± 2
77.52 K	30.84 ± 2.1
80.21 K	32.24 ± 2.2
82.99 K	33.67 ± 2.3
85.77 K	35.08 ± 2.4
88.74 K	36.63 ± 2.5
91.81 K	38.21 ± 2.7
94.98 K	39.83 ± 2.8
98.28 K	41.48 ± 2.9
100 K	42.28 ± 2.9
101.68 K	43.16 ± 3
105.2 K	44.86 ± 3.1
108.84 K	46.57 ± 3.2
112.61 K	48.32 ± 3.4
116.51 K	50.09 ± 3.5
120.55 K	51.87 ± 3.6
124.73 K	53.61 ± 3.7
129.04 K	55.37 ± 3.9
133.51 K	57.22 ± 4
138.13 K	59.1 ± 4.1
142.91 K	60.93 ± 4.2
147.86 K	62.82 ± 4.4
150 K	63.64 ± 4.4
152.97 K	64.6 ± 4.5
158.25 K	66.54 ± 4.6
163.72 K	68.4 ± 4.8
169.39 K	70.23 ± 4.9
175.25 K	72.2 ± 5
181.32 K	74.15 ± 5.2
187.59 K	75.84 ± 5.3
194.08 K	77.96 ± 5.4
200 K	79.46 ± 5.5
200.79 K	79.76 ± 5.5
207.73 K	81.56 ± 5.7
214.93 K	83.34 ± 5.8
222.36 K	85.17 ± 5.9
230.05 K	86.81 ± 6
238.01 K	88.63 ± 6.2
246.25 K	90.44 ± 6.3
250 K	91.07 ± 6.3
254.74 K	92.01 ± 6.4
263.54 K	93.59 ± 6.5
272.64 K	95.02 ± 6.6
282.08 K	96.5 ± 6.7
291.84 K	98.01 ± 6.8
298.15 K	98.68 ± 6.9
300 K	98.88 ± 6.9
302.26 K	99.17 ± 6.9
